Laboratory results: US10844057B2, “Process for preparing JAK inhibitors and intermediates thereof” (priority 2018, dated 2020)
Like-named read-outs stand apart in the source and are kept apart here.

Assays:
JAK2 = JAK2 (Homo sapiens (Human), UniProt O60674); assay: Biochemical JAK kinase assay (LanthaScreen), JAK2; settings: converted from pIC50 using Cheng-Prusoff; ATP 3 μM
Experimental: Assay 1: Biochemical JAK Kinase Assays
A panel of four LanthaScreen JAK biochemical assays (JAK1, 2, 3 and Tyk2) were carried in a common kinase reaction buffer (50 mM HEPES, pH 7.5, 0.01% Brij-35, 10 mM MgCl2, and 1 mM EGTA). Recombinant GST-tagged JAK enzymes and a GFP-tagged STAT1 peptide substrate were obtained from Life Technologies.
Serially diluted compounds were pre-incubated with each of the four JAK enzymes and the substrate in white 384-well microplates (Corning) at ambient temperature for 1 h. ATP was subsequently added to initiate the kinase reactions in 10 μL total volume, with 1% DMSO. […] Kinase reactions were allowed to proceed for 1 hour at ambient temperature before a 10 μL preparation of EDTA (10 mM final concentration) and Tb-anti-pSTAT1 (pTyr701) antibody (Life Technologies, 2 nM final concentration) in TR-FRET dilution buffer (Life Technologies) was added. The plates were allowed to incubate at ambient temperature for 1 h before being read on the EnVision reader (Perkin Elmer). Emission ratio signals (520 nm/495 nm) were recorded and utilized to calculate the percent inhibition values based on DMSO and background controls.
For dose-response analysis, percent inhibition data were plotted vs. compound concentrations, and IC50 values were determined from a 4-parameter robust fit model with the Prism software (GraphPad Software). Results were expressed as pIC50 (negative logarithm of IC50) and subsequently converted to pKi (negative logarithm of dissociation constant, Ki) using the Cheng-Prusoff equation.

[1] = Lung and plasma exposure in mice after oral aspiration; type: in vivo; settings: mouse, other: oral aspiration, 50 µg/animal; for concentration at 5 h: Balb/c mice, 1 mg/mL, 50 μL via oral aspiration
Experimental: Adult Balb/c mice from Harlan were used in the assay. […] Animals were placed in lateral recumbency post dose and monitored for full recovery from anesthesia before being returned to their home cage. Four hours later, animals were once again briefly anesthetized and challenged with either vehicle or IL-13 (0.03 μg total dose delivered, 50 μL total volume) via oral aspiration before being monitored for recovery from anesthesia and returned to their home cage. One hour after vehicle or IL-13 administration, whole blood and lungs were collected for both pSTAT6 detection in lung homogenates using a Perkin Elmer AlphaLISA® SureFire® Ultra™ HVp-STAT6 (Tyr641) assay kit and for total drug concentration analysis in both lung and plasma. Blood samples were centrifuged (Eppendorf centrifuge, 5804R) for 4 minutes at approximately 12,000 rpm at 4° C. to collect plasma. […] Plasma and lung levels of test compound were determined by LC-MS analysis against analytical standards constructed into a standard curve in the test matrix. A lung to plasma ratio was determined as the ratio of the lung concentration in ng/g to the plasma concentration in ng/mL at 5 hours.

[2] = tested on: TSLP-evoked TARC release in human peripheral blood mononuclear cells; assay: Inhibition of TSLP-evoked TARC release in human peripheral blood mononuclear cells; type: cell-based; settings: human PBMC, 3 to 5 donors, TSLP 10 ng/mL, 48 hours, ELISA; read-out: pIC50 ± st. dev., inhibition of TSLP-evoked TARC release (converted)
Description: Assay 4: Inhibition of TSLP-Evoked TARC Release in Human Peripheral Blood Mononuclear Cells
Thymic stromal lymphopoietin (TSLP) and thymus and activation-regulated chemokine (TARC) are overexpressed in asthmatic airways, and correlate with disease severity. In the lungs, TSLP may be released by bronchial epithelial cells in response to allergens and viral infections. TSLP signals through an IL-7Rα/TSLPR heterodimer found in a broad range of tissues and cell types, including epithelial cells, endothelial cells, neutrophils, macrophages, and mast cells. The binding of TSLP to its receptor induces a conformational change that activates JAK1 and JAK2 to phosphorylate various transcription factors, including STAT3 and STAT5. In immune cells, this triggers a cascade of intracellular events that result in cell proliferation, anti-apoptosis, dendritic cell migration, and production of Th2 cytokines and chemokines. In peripheral blood mononuclear cells (PBMC), TSLP has a proinflammatory effect by activating myeloid dendritic cells to attract and stimulate T cells, a process mediated by the chemoattractant TARC.
The potencies of the test compounds were measured for inhibition of TARC release.
PBMC aliquots (previously isolated from whole blood and frozen in aliquots at −80° C.) from 3 to 5 donors were thawed at 37° C. and added dropwise to 40 mL pre-warmed, sterile-filtered, complete RPMI media in 50 mL Falcon tubes. Cells were pelleted and resuspended in complete media at 2.24×10^6 cells/mL. […] Cells were allowed to rest for 1 hour at 37° C. with 5% CO2.
Compounds were received as 10 mM stock solutions in DMSO. 3.7-fold serial dilutions were performed to generate 9 concentrations of test compound in DMSO at 300× the final assay test concentration. […] 95 μL of 0.2% DMSO in complete media was added to the untreated control wells. Cells were pre-treated with compound for 1 hour at 37° C. with 5% CO2 prior to stimulation.
Immediately prior to use, an aliquot was thawed and prepared at 20× the final assay concentration in complete media. 10 μL of 20×TSLP was added to each well of PBMC, for a final assay concentration of 10 ng/mL. 10 μL of complete media was added to the unstimulated control wells. Cells were stimulated in the presence of compound for 48 hours at 37° C. with 5% CO2.
Following stimulation, the cell culture supernatants were harvested and TARC levels were detected by enzyme-linked immunosorbent assay (ELISA), using Human CCL17/TARC Quantikine ELISA Kit (R&D Systems # DDN00) according to the manufacturer's instructions.
For dose response analysis, the log [test compound (M)] was plotted versus the percent response values for each donor, and IC50 values were determined using a nonlinear regression analysis with GraphPad Prism Software using the 4-parameter sigmoidal dose-response algorithm with variable slope. Data are expressed as mean pIC50 (negative decadic logarithm IC50) values calculated from pIC50 values of individual donors and rounded to one decimal place.

Sequence of JAK2 (O60674 whole entry): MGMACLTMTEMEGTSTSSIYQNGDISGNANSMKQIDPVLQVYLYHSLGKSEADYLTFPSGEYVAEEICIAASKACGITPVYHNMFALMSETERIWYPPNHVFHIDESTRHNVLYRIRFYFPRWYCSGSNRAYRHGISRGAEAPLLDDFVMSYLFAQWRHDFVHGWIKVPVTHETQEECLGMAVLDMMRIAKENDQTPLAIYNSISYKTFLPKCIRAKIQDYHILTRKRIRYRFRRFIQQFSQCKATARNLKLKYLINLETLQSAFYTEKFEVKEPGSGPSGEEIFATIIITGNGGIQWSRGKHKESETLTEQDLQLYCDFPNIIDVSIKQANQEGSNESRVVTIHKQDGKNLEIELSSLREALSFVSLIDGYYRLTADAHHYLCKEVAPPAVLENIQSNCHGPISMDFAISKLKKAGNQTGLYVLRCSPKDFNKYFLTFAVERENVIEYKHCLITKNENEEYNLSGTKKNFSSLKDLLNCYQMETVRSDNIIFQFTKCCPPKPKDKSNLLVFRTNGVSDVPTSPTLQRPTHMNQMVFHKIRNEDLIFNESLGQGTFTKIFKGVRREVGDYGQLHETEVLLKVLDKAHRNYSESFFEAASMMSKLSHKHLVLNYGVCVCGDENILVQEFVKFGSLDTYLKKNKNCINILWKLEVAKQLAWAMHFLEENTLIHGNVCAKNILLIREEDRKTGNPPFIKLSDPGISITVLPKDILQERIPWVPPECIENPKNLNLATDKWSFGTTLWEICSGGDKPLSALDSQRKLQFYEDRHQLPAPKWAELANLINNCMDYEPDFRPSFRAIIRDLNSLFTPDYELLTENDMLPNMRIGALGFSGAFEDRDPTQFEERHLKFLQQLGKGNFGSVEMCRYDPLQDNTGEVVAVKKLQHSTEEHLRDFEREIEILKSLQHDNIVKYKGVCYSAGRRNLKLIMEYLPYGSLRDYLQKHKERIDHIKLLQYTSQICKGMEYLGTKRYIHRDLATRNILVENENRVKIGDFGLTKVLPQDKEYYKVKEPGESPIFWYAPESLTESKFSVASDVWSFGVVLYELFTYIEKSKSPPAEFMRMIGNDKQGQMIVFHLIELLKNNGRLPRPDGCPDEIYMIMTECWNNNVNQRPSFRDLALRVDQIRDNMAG

For `CCc1cc(O)c(F)cc1-c1ccc2c(-c3nc4c([nH]3)CN(C(C)C)[C@H](C(=O)N3CC(N(C)C)C3)C4)n[nH]c2c1` [Example 8, (S)-(3-(dimethylamino)azetidin-1-yl)(2-(6-(2-ethyl-5-fluoro-4-hydroxyphenyl)-1H-indazol-3-yl)-5-isopropyl-4,5,6,7-tetrahydro-3H-imidazo[4,5-c]pyridin-6-yl)methanone], the “JAK2 pKi” value (JAK2) was 10.8, the Kp at 5 h ([1]; Balb/c, lung and plasma, lung ng/g to plasma ng/mL, mice, read-out: Lung to Plasma ratio at 5 hr) was 381 and the concentration at 5 h ([1]; lung, read-out: Lung Concentration (ng/g) at 5 hr) was 22100 ± 5550 ng/g. The concentration at 5 h ([1]; plasma, read-out: Plasma Concentration (ng/mL) at 5 hr) was 58 ± 17 ng/mL and the IC50 [2] was 100 nM.
